Where two headings read alike, the source gives them in different places.
Key:
5-HT1A [1] = biological target: T1, 5-HT1A (Mus musculus, UniProt Q64264); settings: previously determined, used to calculate Ki; read-out: Kd of radioligand at 5-HT1A; cited from earlier work
T1 construct: tissue BioIVT; host or cells: whole C57BL/6 mouse brain minus cerebellum, male and female
T1 sequence (Q64264 1-421): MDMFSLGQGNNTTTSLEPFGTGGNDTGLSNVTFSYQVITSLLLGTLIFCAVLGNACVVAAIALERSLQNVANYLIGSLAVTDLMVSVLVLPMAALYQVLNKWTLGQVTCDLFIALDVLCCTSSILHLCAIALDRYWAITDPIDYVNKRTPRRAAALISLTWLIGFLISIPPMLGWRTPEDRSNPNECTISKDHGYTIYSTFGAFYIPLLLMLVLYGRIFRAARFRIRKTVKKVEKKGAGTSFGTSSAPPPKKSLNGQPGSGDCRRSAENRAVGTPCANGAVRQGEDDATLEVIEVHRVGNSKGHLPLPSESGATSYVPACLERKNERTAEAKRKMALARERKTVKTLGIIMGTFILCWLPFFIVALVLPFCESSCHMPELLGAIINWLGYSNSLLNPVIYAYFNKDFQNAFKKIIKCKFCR

C57BL/6J mice [2] = assay: Head twitch response (HTR) in mice; type: in vivo, mouse; settings: for HTR (total events) Mean: 30 min; for ED50: Mus musculus, sc; for HTR ♀ Emax (95% CI) / HTR ♂ Emax (95% CI): top of regression fit
Procedure: Each drug was tested using groups of 12 mice per sex (i.e., 24 total mice per drug). Experimental sessions were conducted once every 1–2 weeks for 2 months per drug. Experimental sessions were spaced apart by at least 1 week to minimize the potential for tolerance to drug effects (Canal and Morgan [2012]; Darmani et al. [1990a]; de la Fuente Revenga et al. [2022]). Experiments were conducted during the light phase (1300–1700 local time; lights on = 0700 in a 12/12 light/dark cycle).
(§1) At 1–2 weeks prior to the beginning of experiments, mice were habituated to handling and receiving s.c. saline injections. On the day of an experiment, mice were acclimated to the testing room in their home cage for at least 30 min prior to the start of sessions. Prior to each session, mice were weighed, and resting body temperatures were recorded. Mice were then placed into experimental chambers for acclimation. Behavioral testing was carried out in TruScan mouse locomotor arenas equipped with photobeam arrays (Coulbourn Instruments, Holliston, MA, USA) that were modified with cylindrical inserts and transparent flooring to aid in semi-automated HTR detection as previously described (Glatfelter et al. [2022a]). After 5 min of acclimation, basal body temperature was recorded followed by s.c. injection of drug or vehicle, and mice were returned to test chambers for 30 min. Dose ranges for each drug were 0.03–10 mg/kg for DOI, 0.03–10 mg/kg for psilocybin, and 0.003–1 mg/kg for LSD. Mice were randomly assigned to specific doses at the beginning of the experiment and received different doses at each session.
(§2) During each session, locomotor activity was quantified via photobeam tracking of distance traveled in cm. Overhead GoPro Hero Black 7 video recordings (120 fps, 960p resolution) were analyzed using a commercially available software package from Clever Sys Inc. (Reston, VA, USA) for the measurement of HTR activity. Mouse body temperature was also collected post-session to calculate temperature change values (basal - post session temperature reading).
(§3) Concentration-response data were fit to a single site non-linear regression model. For the HTR studies, potencies were determined from the ascending limb of the dose-response curves using ED50 potency values from [agonist] vs. response (variable slope, four parameter) least squares fit non-linear regression analyses, whereas efficacy was defined by the top output parameter or Emax from the aforementioned analyses. […] Best-fit values for ED50 and Emax from non-linear regression analyses were compared by extra sum-of-squares F tests. Mean effects for each behavioral endpoint were compared using two-way ANOVA (dose x sex), followed by Sidak’s multiple comparisons post-hoc test. Mean effects for pooled mouse behavioral data were compared via Welch’s ANOVA with Dunnett’s T3 post-hoc test, comparing all doses to saline vehicle controls (0 mg/kg). Alpha was set to 0.05 for all analyses.

C57BL/6J mice [3] = assay: Body temperature change in mice; type: in vivo, mouse; settings: post 30 min session
Procedure: All mice were injected s.c. with temperature transponders (14 × 2 mm, model IPTT-300, Avidity Science, Waterford Wisconsin, USA) under brief isoflurane immobilization, and were given at least 1 week to recover (Glatfelter et al. [2022b]). Mice were single housed post-implant, and for the duration of the experiments, to protect their devices from being removed by cage mates. Temperature was measured noninvasively using a handheld reader which is sensitive to the transponder signals.
as §1, §2, §3

C57BL/6J mice [4] = assay: Locomotor activity (distance traveled) in mice; type: in vivo, mouse; settings: for Locomotor Activity (cm) Mean: 30 min
Procedure: as §1, §2, §3

C57BL/6J mice [5] = settings: range over Table 1 and earlier studies; ref Glatfelter et al. [2022b], Sherwood et al. [2020]; cited from earlier work
5-HT2A = biological target: T2, 5-HT2A (Mus musculus, UniProt P35363); assay: Competition binding vs [3H]M100907 in mouse brain membranes
T2 construct: tissue BioIVT; host or cells: whole C57BL/6 mouse brain minus cerebellum, male and female
Procedure: (§4) Competition binding studies were conducted in mouse brain tissue as previously described (Glatfelter et al. [2022b]). Briefly, the experiments utilized membranes prepared from whole C57BL/6 mouse brain minus cerebellum (BioIVT, Westbury, NY, USA). […] We assessed the ability of test drugs to compete for [^3H]M100907 binding at 5-HT2A (1 nM) or [^3H]8-OH-DPAT binding at 5-HT1A (0.5 nM). Radioligands were purchased commercially (PerkinElmer, Boston, MA, USA). Nonspecific binding was determined using 10 µM ketanserin for 5-HT2A and serotonin for 5-HT1A. All data represent 3 experiments performed in triplicate.
as §3

5-HT1A [6] = biological target: T1, 5-HT1A; assay: Competition binding vs [3H]8-OH-DPAT in mouse brain membranes
Procedure: as §4, §3

T2 sequence (P35363 whole entry): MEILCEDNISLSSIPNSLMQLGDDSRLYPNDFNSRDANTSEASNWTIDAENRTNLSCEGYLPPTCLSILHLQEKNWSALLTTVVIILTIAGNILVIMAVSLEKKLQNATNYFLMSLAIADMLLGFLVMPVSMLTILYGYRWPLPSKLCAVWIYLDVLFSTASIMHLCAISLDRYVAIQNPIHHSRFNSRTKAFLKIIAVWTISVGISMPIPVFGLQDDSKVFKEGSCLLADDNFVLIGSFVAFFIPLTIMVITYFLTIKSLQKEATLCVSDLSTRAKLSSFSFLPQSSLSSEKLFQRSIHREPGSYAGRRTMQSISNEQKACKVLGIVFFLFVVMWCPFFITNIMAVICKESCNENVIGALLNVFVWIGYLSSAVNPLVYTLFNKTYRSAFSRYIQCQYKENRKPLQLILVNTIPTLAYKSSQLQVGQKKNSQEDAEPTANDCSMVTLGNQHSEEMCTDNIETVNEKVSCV

## CCCN(CCC)C1CCc2cccc(O)c2C1 (centres unmarked) [[^3H]8-OH-DPAT]
5-HT1A [1]
  Kd: 1.03 nM

## CN(C)CCc1c[nH]c2cccc(OP(=O)(O)O)c12 [Psilocybin, 4-phosphoryloxy-N,N-dimethyltryptamine]
C57BL/6J mice [2]; 0.03 mg/kg s.c., female mice
  HTR (total events) Mean: 8.0 total events
C57BL/6J mice [2]; 0.03 mg/kg s.c., male mice
  HTR (total events) Mean: 7.6 total events
C57BL/6J mice [2]; 0.03 mg/kg s.c., pooled sexes
  HTR (total events) Mean: 7.8 total events
C57BL/6J mice [2]; 0.1 mg/kg s.c., female mice
  HTR (total events) Mean: 11.8 total events
C57BL/6J mice [2]; 0.1 mg/kg s.c., male mice
  HTR (total events) Mean: 13.0 total events
C57BL/6J mice [2]; 0.1 mg/kg s.c., pooled sexes
  HTR (total events) Mean: 12.4 total events
C57BL/6J mice [2]; 0.3 mg/kg s.c., female mice
  HTR (total events) Mean: 27.3 total events
C57BL/6J mice [2]; 0.3 mg/kg s.c., male mice
  HTR (total events) Mean: 26.8 total events
C57BL/6J mice [2]; 0.3 mg/kg s.c., pooled sexes
  HTR (total events) Mean: 27.1 total events
C57BL/6J mice [2]; 1 mg/kg s.c., female mice
  HTR (total events) Mean: 30.2 total events
C57BL/6J mice [2]; 1 mg/kg s.c., male mice
  HTR (total events) Mean: 39.2 total events
C57BL/6J mice [2]; 1 mg/kg s.c., pooled sexes
  HTR (total events) Mean: 34.7 total events
C57BL/6J mice [2]; 3 mg/kg s.c., female mice
  HTR (total events) Mean: 47.2 total events
C57BL/6J mice [2]; 3 mg/kg s.c., male mice
  HTR (total events) Mean: 29.4 total events
C57BL/6J mice [2]; 3 mg/kg s.c., pooled sexes
  HTR (total events) Mean: 38.3 total events
C57BL/6J mice [2]; 10 mg/kg s.c., female mice
  HTR (total events) Mean: 21.8 total events
C57BL/6J mice [2]; 10 mg/kg s.c., male mice
  HTR (total events) Mean: 18.7 total events
C57BL/6J mice [2]; 10 mg/kg s.c., pooled sexes
  HTR (total events) Mean: 20.3 total events
C57BL/6J mice [2]; female mice, ascending limb of dose-response curve, read-out: HTR ♀ ED50 (95% CI)
  ED50: 0.31 mg/kg
C57BL/6J mice [2]; male mice, ascending limb of dose-response curve, read-out: HTR ♂ ED50 (95% CI)
  ED50: 0.17 mg/kg
C57BL/6J mice [2]; pooled male and female mice, read-out: HTR ♂+♀ ED50 (95% CI)
  ED50: 0.22 mg/kg
C57BL/6J mice [2]; peak/active doses, 30 min session
  Duration of HTR effect in the session: trended to baseline levels by the end of the testing session
C57BL/6J mice [2]; s.c., both sexes, 30 min session
  Time of peak effects on HTR post drug administration: 5 to 10 min
C57BL/6J mice [2]; s.c., female mice
  HTR ♀ Emax (95% CI): 43 (35–54) HTR events
C57BL/6J mice [2]; s.c., female mice, listed as psilocybin
  HTR ♀ Emax (95% CI): 43 HTR events
C57BL/6J mice [2]; s.c., male mice
  HTR ♂ Emax (95% CI): 35 (30–40) HTR events
C57BL/6J mice [2]; s.c., male mice, listed as psilocybin
  HTR ♂ Emax (95% CI): 35 HTR events
C57BL/6J mice [2]; s.c., pooled male and female mice
  HTR ♂+♀ Emax (95% CI): 38 (33–47) HTR events
C57BL/6J mice [3]; 0.03 mg/kg s.c., female mice
  Body Temp Δ (°C) Mean: 0.2 °C
C57BL/6J mice [3]; 0.03 mg/kg s.c., male mice
  Body Temp Δ (°C) Mean: -0.4 °C
C57BL/6J mice [3]; 0.03 mg/kg s.c., pooled sexes
  Body Temp Δ (°C) Mean: -0.1 °C
C57BL/6J mice [3]; 0.1 mg/kg s.c., female mice
  Body Temp Δ (°C) Mean: 0.1 °C
C57BL/6J mice [3]; 0.1 mg/kg s.c., male mice
  Body Temp Δ (°C) Mean: 0.3 °C
C57BL/6J mice [3]; 0.1 mg/kg s.c., pooled sexes
  Body Temp Δ (°C) Mean: 0.2 °C
C57BL/6J mice [3]; 0.3 mg/kg s.c., female mice
  Body Temp Δ (°C) Mean: 0.04 °C
C57BL/6J mice [3]; 0.3 mg/kg s.c., male mice
  Body Temp Δ (°C) Mean: 0.1 °C
C57BL/6J mice [3]; 0.3 mg/kg s.c., pooled sexes
  Body Temp Δ (°C) Mean: 0.1 °C
C57BL/6J mice [3]; 1 mg/kg s.c., female mice
  Body Temp Δ (°C) Mean: 0.0 °C
C57BL/6J mice [3]; 1 mg/kg s.c., male mice
  Body Temp Δ (°C) Mean: -1.0 °C
C57BL/6J mice [3]; 1 mg/kg s.c., pooled sexes
  Body Temp Δ (°C) Mean: -0.4 °C
C57BL/6J mice [3]; 3 mg/kg s.c., female mice
  Body Temp Δ (°C) Mean: -1.0 °C
C57BL/6J mice [3]; 3 mg/kg s.c., male mice
  Body Temp Δ (°C) Mean: -1.3 °C
C57BL/6J mice [3]; 3 mg/kg s.c., pooled sexes
  Body Temp Δ (°C) Mean: -1.2 °C
C57BL/6J mice [3]; 10 mg/kg s.c., female mice
  Body Temp Δ (°C) Mean: -3.3 °C
C57BL/6J mice [3]; 10 mg/kg s.c., male mice
  Body Temp Δ (°C) Mean: -4.1 °C
C57BL/6J mice [3]; 10 mg/kg s.c., pooled sexes
  Body Temp Δ (°C) Mean: -3.7 °C
C57BL/6J mice [4]; 0.03 mg/kg s.c., female mice
  Locomotor Activity (cm) Mean: 2480.4 cm
C57BL/6J mice [4]; 0.03 mg/kg s.c., male mice
  Locomotor Activity (cm) Mean: 2063.8 cm
C57BL/6J mice [4]; 0.03 mg/kg s.c., pooled sexes
  Locomotor Activity (cm) Mean: 2272 cm
C57BL/6J mice [4]; 0.1 mg/kg s.c., female mice
  Locomotor Activity (cm) Mean: 2686.5 cm
C57BL/6J mice [4]; 0.1 mg/kg s.c., male mice
  Locomotor Activity (cm) Mean: 2877.2 cm
C57BL/6J mice [4]; 0.1 mg/kg s.c., pooled sexes
  Locomotor Activity (cm) Mean: 2782 cm
C57BL/6J mice [4]; 0.3 mg/kg s.c., female mice
  Locomotor Activity (cm) Mean: 3293.8 cm
C57BL/6J mice [4]; 0.3 mg/kg s.c., male mice
  Locomotor Activity (cm) Mean: 3064.5 cm
C57BL/6J mice [4]; 0.3 mg/kg s.c., pooled sexes
  Locomotor Activity (cm) Mean: 3179 cm
C57BL/6J mice [4]; 1 mg/kg s.c., female mice
  Locomotor Activity (cm) Mean: 2900.9 cm
C57BL/6J mice [4]; 1 mg/kg s.c., male mice
  Locomotor Activity (cm) Mean: 3532.9 cm
C57BL/6J mice [4]; 1 mg/kg s.c., pooled sexes
  Locomotor Activity (cm) Mean: 3188 cm
C57BL/6J mice [4]; 3 mg/kg s.c., female mice
  Locomotor Activity (cm) Mean: 2041.8 cm
C57BL/6J mice [4]; 3 mg/kg s.c., male mice
  Locomotor Activity (cm) Mean: 2018.9 cm
C57BL/6J mice [4]; 3 mg/kg s.c., pooled sexes
  Locomotor Activity (cm) Mean: 2029 cm
C57BL/6J mice [4]; 10 mg/kg s.c.
  Locomotor activity effect: decreased locomotor activity
C57BL/6J mice [4]; 10 mg/kg s.c., female mice
  Locomotor Activity (cm) Mean: 962.1 cm
C57BL/6J mice [4]; 10 mg/kg s.c., male mice
  Locomotor Activity (cm) Mean: 741.5 cm
C57BL/6J mice [4]; 10 mg/kg s.c., pooled sexes
  Locomotor Activity (cm) Mean: 851.8 cm
C57BL/6J mice [4]; 0.3–1 mg/kg s.c.
  Locomotor activity effect: mild increases in locomotor activity
C57BL/6J mice [5]
  ED50 doses inducing HTR in C57BL/6J mice: 0.22 to 0.40 mg/kg

## CN(C)CCc1c[nH]c2cccc(O)c12 [Psilocin]
5-HT2A; 5-HT2A binding affinity (Ki), males and females, male and female mouse brain membranes, summary statement
  Ki: 1 to 100 nM
5-HT2A; [3H]M100907 Binding ♀ m5-HT2A Ki, female mouse brain membranes
  Ki: 113 nM
5-HT2A; [3H]M100907 Binding ♂ m5-HT2A Ki, male mouse brain membranes
  Ki: 110 nM
5-HT1A [6]; 5-HT1A binding affinity (Ki), males and females, male and female mouse brain membranes, summary statement
  Ki: 1 to 100 nM
5-HT1A [6]; [3H]8-OH-DPAT Binding ♀ m5-HT1A Ki, female mouse brain membranes
  Ki: 100 nM
5-HT1A [6]; [3H]8-OH-DPAT Binding ♂ m5-HT1A Ki, male mouse brain membranes
  Ki: 113 nM
